Source: ChEMBL document CHEMBL1130685, “Anthelmintic beta-hydroxyketoamides (BKAs)” (1998)

Tests used:
Meriones unguiculatus [1] = assay: Compound was evaluated for percentage clearance of Haemonchus contortus from jirds at the dose of 68 mg/kg; type: functional
Meriones unguiculatus [2] = assay: Compound was evaluated for percentage clearance of Haemonchus contortus from jirds at dose of 25 mg/kg; type: functional

| SMILES | Parasite_Clearance (Meriones unguiculatus [1]) [%] | Parasite_Clearance (Meriones unguiculatus [2]) [%] |
| --- | --- | --- |
| Cc1cc(O)c(C(=O)Nc2ccc(Br)cc2)c(=O)o1 | 76 | – |
| O=C(Nc1ccc(Br)cc1)C1=C(O)c2ccccc2C1=O | 100 | – |
| O=C(Nc1ccc(Br)cc1)c1c(O)c2ccccc2oc1=O | 89 | – |
| O=C(Nc1ccc(Br)cc1)C1=C(O)C2C3C=CC(O3)C2C1=O (stereo not given) | 92 | – |
| O=C(Nc1ccc(Br)cc1)c1c(O)c2cccnc2oc1=O | 100 | – |
| O=C(Nc1ccc(Br)cc1)c1c(O)nc2sc(C(F)(F)F)nn2c1=O | 82 | – |
| CN1C(=O)C(=C(O)Nc2ccc(Br)cc2)C(=O)N(C)C1=O | 100 | 81 |
| O=C(Nc1ccc(Br)cc1)C1=C(O)[C@@H]2[C@H](C1=O)[C@@H]1C=C[C@H]2C1 | 98 | – |
| Cn1c(=O)c(C(=O)Nc2ccc(Br)cc2)c(O)c2ccccc21 | 81 | – |
